Here are results for 26 molecules from patent publication US20220143198A1, “COMPOSITIONS AND METHODS RELATED TO TETHERED KETHOXAL DERIVATIVES” (The University of Chicago, priority 2019, published 2022).

The subject of assay [1] is guanosine. Description: Reversibility of kethoxal derivatives by adjusting pH (kethoxal-guanosine adduct dissociation). Type of assay: physicochemical.
The test system of assay [2] is guanosine. In words: Reversibility of kethoxal derivatives using GTP for competition (LCMS of free guanosine). The following applies: 1:1 ratio. Type of assay: physicochemical.
For a further assay, the system named is Cells. Description: Cell permeability and radical-mediated biotinylation of RNA from treated cells (dot blot). The conditions noted are these: cells treated 10 min, versus control sample. Format: cell-based. The method, then:
A second set of test were performed to test cell permeability of phenol-kethoxal and diphenol-kethoxal and if the labeling enhances radical-mediated biotinylation. Cells were treated with phenol-kethoxal and diphenol-kethoxal for 10 min, respectively, and RNA isolated from treated cells. An in vitro biotinylation reaction was performed by mixing these kethoxal derivative-labeled RNAs with biotin-phenol, horseradish peroxidase (HRP), and H2O2, see FIG. 4. HRP is an enzyme that mimics APEX with higher radical generation activity in vitro. The biotinylated RNAs were purified and subjected to dot blot analysis.

Assay [3] has as its system 12-mer synthetic RNA oligo containing four guanine bases. In words: Labeling activity of phenol-kethoxal and diphenol-kethoxal on 12-mer synthetic RNA oligo (MALDI-TOF). The following applies: 10 min incubation. Format: biochemical. How it is done: To test the labeling activity of phenol-kethoxal and diphenol-kethoxal, the two compounds were incubated with a 12-mer synthetic RNA oligo containing four guanine bases, respectively. After 10 min, the reactions were cleaned-up and analyzed by MALDI-TOF.

The mark [4] stands for this setting: pH = 5.8, 4 h after adjusting from pH 10.1, 1:1 ratio.
[5] abbreviates: pH = 5.8, 24 h after adjusting from pH 10.1, 1:1 ratio.
Where [6] appears, read: pH = 10.1, 10 min, kethoxal derivative and guanosine 1:1.
The mark [7] stands for this setting: pH = 5.8, 10 min after adjusting from pH 10.1, 1:1 ratio.
Setting [8] is: pH = 7.0, 10 min, excess GTP added after 10 min.
Setting [9] is: pH = 7.0, 2 h, excess GTP competitor.
The mark [10] stands for this setting: pH = 7.0, 24 h, excess GTP competitor.

Regarding `CC(C)(OCCN=[N+]=[N-])C(=O)C=O` [drawing 63], the results for the Conversion of guanosine in the assay with guanosine [1] (setting [4]), in the assay with guanosine [1] (setting [5]) and with guanosine [1] (setting [6]) were 77.6%, 80.3% and 77.0%, respectively.
With `O=CC(=O)c1ccccc1` [drawing 73], the Conversion of guanosine is 12.2% in the assay with guanosine [1] (setting [7]), 10.7% in the assay on guanosine [1] (setting [4]), 12.7% with guanosine [1] (setting [5]) and 28.3% in the assay with guanosine [1] (setting [6]).
For the molecule `[N-]=[N+]=NCCOC(F)(F)C(=O)C=O` [drawing 90], the “Conversion of guanosine under competition condition” value in the assay with guanosine [2] (pH = 10.1, 10 min, excess GTP added after 10 min) is 51.2% (pH = 10.1); with guanosine [2] (pH = 10.1, 2 h, excess GTP competitor) it was 42.4% (pH = 10.1); in the assay on guanosine [2] (pH = 10.1, 24 h, excess GTP competitor), 22.2% (pH = 10.1).
`O=CC(=O)Cc1ccccc1` [drawing 91]: the “Conversion of guanosine under competition condition” value in the assay with guanosine [2] (setting [8]) was determined as 21.8%; in the assay with guanosine [2] (setting [9]) it was 9.6%; in the assay on guanosine [2] (setting [10]) it was 8.4%.
Regarding `[N-]=[N+]=NCCOCC(=O)C=O` [drawing 64], the figures for the Conversion of guanosine in the assay with guanosine [1] (setting [4]), with guanosine [1] (setting [5]) and in the assay on guanosine [1] (setting [6]) were 75.0%, 76.1% and 74.6%, respectively.
In the case of `[N-]=[N+]=NCCOCCC(=O)C=O` [drawing 72], the results for the Conversion of guanosine in the assay on guanosine [1] (setting [4]) and with guanosine [1] (setting [6]) were 16.6% and 19.7%, respectively.
Consider `[N-]=[N+]=NCCOCCC(=O)C=O` [drawing 87], for which the “Conversion of guanosine under competition condition” value worked out at 41.3% in the assay with guanosine [2] (setting [8]), 12.6% in the assay with guanosine [2] (setting [9]) and 11.2% in the assay on guanosine [2] (setting [10]).
As for `CC(OCCN=[N+]=[N-])C(=O)C=O` (stereo not shown) [drawing 77], the “Conversion of guanosine under competition condition” value with guanosine [2] (setting [8]) turned out to be 71.4%; in the assay with guanosine [2] (setting [9]) it was 60.8%; with guanosine [2] (setting [10]), 28.9%.
Take `CC(C(=O)C=O)N(C)C(=O)CN=[N+]=[N-]` (stereo not shown) [drawing 71]: the Conversion of guanosine came to 31.9% with guanosine [1] (setting [4]), 26.5% in the assay with guanosine [1] (setting [5]) and 35.6% with guanosine [1] (setting [6]).
In the case of `O=CC(=O)c1ccccc1` [drawing 88], the “Conversion of guanosine under competition condition” value in the assay with guanosine [2] (setting [8]) is reported as 25.7%; in the assay on guanosine [2] (setting [9]) it was 12.3%; with guanosine [2] (setting [10]), 4.4%.
For `CC(N=[N+]=[N-])C(=O)C=O` (stereo not shown) [drawing 66], the Conversion of guanosine is recorded as 65.6% with guanosine [1] (setting [7]), 65.2% in the assay on guanosine [1] (setting [4]), 58.7% with guanosine [1] (setting [5]) and 65.9% with guanosine [1] (setting [6]).
Consider `CC(OC(=O)CN=[N+]=[N-])C(=O)C=O` (stereo not shown) [drawing 80], for which the “Conversion of guanosine under competition condition” value in the assay with guanosine [2] (setting [8]) came out at 54.4%; in the assay on guanosine [2] (setting [9]) it was 44.6%; in the assay with guanosine [2] (setting [10]), 37.5%.
In the case of `[N-]=[N+]=NCCOC(F)C(=O)C=O` (stereo not shown) [drawing 74], the Conversion of guanosine in the assay on guanosine [1] (setting [7]) was 50.1%; with guanosine [1] (setting [4]), 57.1%; in the assay on guanosine [1] (setting [5]), 58.2%; with guanosine [1] (setting [6]), 46.2%.
For the molecule `CC(OC(=O)CN=[N+]=[N-])C(=O)C=O` (stereo not shown) [drawing 65], the Conversion of guanosine with guanosine [1] (setting [4]) amounted to 77.3%; with guanosine [1] (setting [5]), 77.2%; in the assay with guanosine [1] (setting [6]) it was 75.5%.
Regarding `[N-]=[N+]=NCCCC(=O)C=O` [drawing 70], the Conversion of guanosine with guanosine [1] (setting [4]) amounted to 19.0%; in the assay with guanosine [1] (setting [5]) it was 14.7%; in the assay on guanosine [1] (setting [6]) it was 30.2%.
The corresponding values for `CC(Br)C(=O)C=O` (stereo not shown) [drawing 67] are 64.3%, 62.9% and 62.7%.
In the case of `CC(OCCN=[N+]=[N-])C(=O)C=O` (stereo not shown) [drawing 62], the Conversion of guanosine with guanosine [1] (setting [7]) worked out at 79.8%; with guanosine [1] (setting [4]), 80.2%; in the assay with guanosine [1] (setting [5]), 81.8%; in the assay on guanosine [1] (setting [6]), 79.8%.
As for `[N-]=[N+]=NCCOCC(=O)C=O` [drawing 79], the “Conversion of guanosine under competition condition” value in the assay with guanosine [2] (setting [8]) was 47.4%; in the assay on guanosine [2] (setting [9]), 29.7%; with guanosine [2] (setting [10]), 27.4%.
Take `[N-]=[N+]=NCCOC(F)(F)C(=O)C=O` [drawing 75]: the Conversion of guanosine was found to be 49.2% with guanosine [1] (setting [7]), 55.1% with guanosine [1] (setting [4]), 54.7% with guanosine [1] (setting [5]) and 41.5% in the assay on guanosine [1] (setting [6]).
Turning to `CC(OCCn1cc(-c2ccc(O)cc2)nn1)C(=O)C=O` (stereo not shown) [phenol-kethoxal], in the assay with Cells, the “Biotin signal of RNA from treated cells after HRP/biotin-phenol/H2O2 biotinylation” value is “stronger biotin signals compared with the control sample”. In addition, the “Labeling activity on RNA oligo” value in assay [3] was “label the oligo efficiently, with all four guanines on all oligo molecules modified”.
On to `CCN(CC)C(C)C(=O)C=O` (stereo not shown), for which the figures for the “Conversion of guanosine under competition condition” value in the assay on guanosine [2] (setting [8]), in the assay with guanosine [2] (setting [9]) and in the assay on guanosine [2] (setting [10]) were 66.9%, 66.1% and 36.3%, respectively.
With `CC(C)(OCCN=[N+]=[N-])C(=O)C=O` [drawing 78], the “Conversion of guanosine under competition condition” value in the assay on guanosine [2] (setting [8]) was 51.6%; in the assay on guanosine [2] (setting [9]), 55.9%; in the assay on guanosine [2] (setting [10]), 33.6%.
In the case of `CC(OCCn1cc(-c2ccc(O)c(O)c2)nn1)C(=O)C=O` (stereo not shown) [diphenol-kethoxal], the “Biotin signal of RNA from treated cells after HRP/biotin-phenol/H2O2 biotinylation” value with Cells is “stronger biotin signals compared with the control sample”. Further, the “Labeling activity on RNA oligo” value in assay [3] is “label the oligo efficiently, with all four guanines on all oligo molecules modified”.
Turning to `[N-]=[N+]=NCCOC(F)C(=O)C=O` (stereo not shown) [drawing 89], the “Conversion of guanosine under competition condition” value was 6.4% in the assay with guanosine [2] (setting [8]), 18.6% in the assay with guanosine [2] (setting [9]) and 22.8% in the assay with guanosine [2] (setting [10]).
Take `CC(N=[N+]=[N-])C(=O)C=O` (stereo not shown) [drawing 81]: the “Conversion of guanosine under competition condition” value with guanosine [2] (setting [8]) came out at 56.5%; in the assay on guanosine [2] (setting [9]), 40.9%.
`CC(Br)C(=O)C=O` (stereo not shown) [drawing 82]: the “Conversion of guanosine under competition condition” value was determined as 46.2% with guanosine [2] (setting [8]), 38.2% in the assay with guanosine [2] (setting [9]) and 18.6% with guanosine [2] (setting [10]).
